In US20060008800A1, “Unc-13 in the modulation of neurotransmission and secretion events” (priority 2002, published 2006):
“Also recorded” adds a separate entry of the source.

Key:
[1] = system: Munc13-1 deficient hippocampal neurons; assay: EPSC augmentation following high frequency action potential trains in Munc13-1 deficient, Munc13-2 dependent neurons; assay type: cell-based, mouse
[2] = system: hippocampal neurons; assay: β-phorbol ester induced potentiation of evoked synaptic currents in autaptic neuron cultures (patch clamp); assay type: cell-based, mouse; conditions: for effect of PKC inhibitor on β-PE induced increase/potentiation of evoked EPSCs: 3 μM inhibitor, 1 μM PDBU
Protocol: (§1) Microisland culture preparation was performed according to Bekkers and Stevens (1991). The extracellular medium contained (mM): NaCl, 167; KCl, 2.4; HEPES, 10; glucose, 10; CaCl2, 4; MgCl2, 4 (340 mOsm, pH 7.3). Solutions were applied and recordings were performed as described in Rosenmund (1995). To examine synaptically activated currents, experiments were performed using recurrent synapses (autapses) or only single autaptic neuroeses on microisland cultures at room temperature (=24° C.). Pipette solutions included (mM): KCl, 120, or K-Gluconate, 125; HEPES, 10; EGTA, 1; MgCl2, 4.6; Na4ATP, 4; Creatinephosphate, 15; creatinephosphokinase 50 U/ml (320 mOsm, pH 7.3). Wild type and Munc13-1 deficient glutamatergic hippocampal neurons were used to study the characteristics of Munc13-1 and Munc13-1 independent synapses. For these purposes, individual neurons grown on microisland beds of glial cells (Bekkers, 1991) were employed. In this autaptic culture system, where isolated nerve cells make multiple synaptic contacts, so called autapses, with their own dendritic trees, spontaneous transmitter release, release of the readily releasable vesicle pool induced by hypertonic solutions, and action potential evoked release arise from the same synapse population and can be measured readily with patch clamp techniques. Autaptic responses were obtained after brief (1-2 ms) somatic depolarization. This induces an unclamped action potential that is followed by a postsynaptic response with a delay of 2-4 ms. Excitatory, glutamatergic and inhibitory, GABAergic synaptic currents were distinguished by their characteristic pharmacological and kinetic properties. Excitatory glutamatergic cells were mainly characterized because the differential equipment of presynaptic terminals formed by the same axon with Munc13 priming factors is not apparent in GABAergic neurons.
Design of and infection with Semliki Forest Virus was done according to published procedures (Betz, 2001; Ashery, 2000). Cells were measured 22-26 h after infection.
Routinely, cells from Munc13-1^H567K/Munc13-1^H567K mutants were analyzed 12-20 day after plating and compared to wild type control cells obtained from littermates. In some experiments we employed Munc13-1/Munc13-2 double deficient neurons as model cells to study the characteristics of the Munc13-1^H567K variant in comparison to wild type Munc13-1 following overexpression using the Semliki-Forest-Virus system. In contrast to Munc13-1 deficient glutamatergic hippocampal neurons, which still show measurable glutamate release (10% of wild type levels; Augustin, 1999b), double homozygous Munc13-1/Munc13-2 deletion mutant neurons are characterized by a complete lack of spontaneous and evoked transmitter release but can be rescued by reintroduction of Munc13 proteins. This rescue approach was persued in Munc13-1/Munc13-2 double mutant neurons instead of breeding the Munc13-1^H567K/Munc 3-1^H567K mutation into the Munc13-2 deletion mutant background because it was much faster and allowed the direct comparison of additional mutant (Betz, 2001) and wild type Munc13-1 variants in the same cultures. Autaptic responses were obtained after brief (1-2 ms) somatic depolarization. This induces an unclamped action potential that is followed by a postsynaptic response with a delay of 2-4 ms. Excitatory, glutamatergic synaptic currents were identified by their characteristic pharmacological and kinetic properties.

[3] = system: hippocampal neurons; assay: α-latrotoxin induced mEPSC/mIPSC activity; assay type: cell-based, mouse
Protocol: as §1
Given that neither action potentials nor hypertonic stimuli successfully evoked synaptic transmission and no mPSCs were detectable in Munc13-1/2 double deficient cells, it is possible that postsynaptic development is impaired in mutant cells. To test this directly, the spider toxin α-latrotoxin was used which allows to partially circumvent the need for priming factors in vesicular release (Augustin, 1999b). […] The average amplitude of these events was 22.7±2.4 pA (FIG. 5B). Both, mEPSC frequency and amplitude values are similar to wild type values (not shown).

[4] = biological target: T1, Calmodulin (Rattus norvegicus, UniProt P0DP29); assay: Cosedimentation of Calmodulin from rat brain synaptosome extract with GST fusion proteins; assay type: binding; conditions: for Calmodulin binding in cosedimentation: 15 μg fusion protein, 3 mM Ca
T1 construct: from tissue; host or cells: rat brain synaptosomes, extracted with 1% Igepal
Protocol: GST fusion proteins containing the Calmodulin binding sites of rat Munc13-1 and ubMunc13-2 as well as GST alone were expressed in bacteria, purified and adsorbed onto glutathione beads in equal amounts for subsequent use in cosedimentation assays with rat brain synaptosome extract. Proteins that bound to the immobilized GST fusion proteins were analyzed by SDS-PAGE and immunoblotting with a specific Calmodulin antibody. Calmodulin binds specifically to wt GST-Munc13-1 (445-567) and GST-ubMunc13-2 (372-494). Calmodulin binding is completely abolished by the point mutations in the conserved tryptophanes (Position 1 in the alignment figure x).
Such a tool is a point mutation in a Munc13 protein that abolishes Calmodulin binding. On basis of the evolutionarily conservation of the tryptophane residues (FIG. 22), and since these hydrophobic residues make contact to Calmodulin, we created expression constructs that contain W464R mutation in case of Munc13-1 and a W387R mutation in case of ubMunc13-2. The effect of these mutations on Calmodulin binding was determined in cosedimentation experiments (FIG. 24). GST-tagged fragments of Munc13-1 (aa 445-567) or ubMunc13-2 (aa 372494) were expressed in bacteria and purified according to standard protocols. 15 μg of each expressed fusion protein were used to test for Calmodulin binding from 2 ml of a rat brain synaptosome extract. Rat brain synaptosomes were extracted with Igepal (1%) at a protein concentration of 2 mg/ml in a buffer containing Tris 50 mM pH 8, NaCl 150 mM, EGTA 1 mM and a cocktail of protease inhibitors. The cosedimentation experiment was performed as described prebviously (Betz, Neuron 30 […] 183-196).

[5] = biological target: Calmodulin (Homo sapiens, UniProt P0DP23); assay: Tryptophane fluorescence emission of peptides as reporter for Calmodulin binding; conditions: 10 μM peptide; for binding of Ca^2+/Calmodulin: excess calcium
Protocol: FIG. 23: Tryptophane fluorescence emission spectra of peptides reflecting the Calmodulin binding site of rat Munc13-1 and ubMunc13-2. 10 μM of each peptide were measured in NH4Acetate 0.25 M, 1 mM EGTA. Excitation was at 290 nm.
The Excitation shutter was adjusted to 1 nm bandwith, the emission shutter to 8 nm bandwidth. Pathlenght was 3 mm. All measurements were carried out at room temperature. The exact sequences of each peptide are given in the text. […] In case of the Munc13-1 peptide, Calcium independent binding is also observed, while the binding of Munc13-2 peptides strictly requires Ca2+ for binding.
The tryptophane fluorescence of the peptides was used as a reporter for Calmodulin binding in an experimental setup that was essentially identical to the experiments described elsewhere. (O'Neil et al.). Excitation of 10 μM solutions of the peptides in 0.25 M NH4Acetate pH 8 and 1 mM EGTA at 290 nm (bandwidth 1 nm) produced a maximum in the emission (bandwidth 8 nm) of both peptides at 355 nm. […] The same experiment was performed with the peptide derived of ubMunc13-2. […] In view of the evolutionarily conservation of the motif, other members of the protein family are likely to be Calmodulin targets, too.

[6] = cocktail of phosphatase inhibitors: cypermethrin 1 nM, calyculin A 10 μM, cyclosporine A 1 μM
[7] = 1 nM, Munc13-1/2 double deficient neurons

CC(=O)OCOC(=O)CN(CCOCCOCCN(CC(=O)OCOC(C)=O)CC(=O)OCOC(C)=O)CC(=O)OCOC(C)=O [EGTA-AM]
EPSC augmentation ([1]; 10 Hz train, pretreatment 50 μM, 20 min): 2.0±0.4 fold | maximal EPSC augmentation ([1]; 40 Hz train, pretreatment 50 μM, 20 min): 11.0±1.5 fold | augmentation in frequency-augmentation profile ([1]; frequencies below 40 Hz, pretreatment 50 μM, 20 min): strongly reduced

COc1ccc2c(c1)c(C1=C(c3c[nH]c4ccccc34)C(=O)NC1=O)cn2CCCN(C)C [GÖ 6983]
β-PE induced increase in evoked EPSCs ([2]; 1 μM PDBU after preincubation for 2 min and in the presence of 3 μM GÖ 6983, wild type neurons): 150±6 % of baseline values | effect of PKC inhibitor on β-PE induced increase/potentiation of evoked EPSCs ([2]; wild type neurons): had no effect

NS(=O)(=O)c1cccc2c1c([N+](=O)[O-])cc1nc(O)c(O)nc12 [NBQX]
effect on α-latrotoxin induced mEPSC signals ([3]; Munc13-2 deficient and Munc13-1/2 double deficient neurons): blocked

CN(C)CCCn1cc(C2=C(c3c[nH]c4ccccc34)C(=O)NC2=O)c2ccccc21 [bisindolylmaleimide I]
potentiation of evoked EPSCs by 1 μM PDBU after bisindolylmaleimide I pretreatment [2]: 73±8.3% | effect of PKC inhibitor on β-PE induced increase/potentiation of evoked EPSCs ([2]; wild type neurons): does not prevent | reduction of evoked EPSC responses (rundown) ([2]; 3 μM, four minute application period, wild type neurons): 41±11%

COC[C@@H]([C@H](O)[C@H](O)C(=O)NCC[C@H](C)c1nc(/C=C/C[C@@H]2O[C@]3(C[C@@H](O)[C@@H]2C)O[C@H]([C@H](C[C@H](O)[C@H](C)[C@H](O)[C@H](C)/C=C(C)/C(C)=C/C=C/C(C)=C\C#N)OC)[C@H](OP(=O)(O)O)C3(C)C)co1)N(C)C [calyculin A]
effect on augmentation [1, 6]: did not alter augmentation | effect on augmentation ([1]; cocktail of phosphatase inhibitors: cypermethrin 1 nM, calyculin A 10 μM, cyclosporine A 1 μM, listed as calyculinA): ineffective in blocking augmentation

CC1(C)C(C=C(Cl)Cl)C1C(=O)OC(C#N)c1cccc(Oc2ccccc2)c1 (stereo not drawn) [cypermethrin]
effect on augmentation [1, 6]: ineffective in blocking augmentation; also recorded: did not alter augmentation

C/C1=C/C(=O)O[C@@H]2C[C@@H](CC[C@H](C)/C=C\CC1)O[C@@](O)([C@@H]1CSC(=O)N1)C2 [latrunculin B]
effect on augmentation ([1]; 10 μM): ineffective in blocking augmentation; also recorded: failed to affect augmentation

C=C1[C@@H](O)[C@@H]2O[C@]3(CC[C@H](/C=C/[C@@H](C)[C@@H]4CC(C)=C[C@@]5(O[C@H](C[C@@](C)(O)C(=O)O)CC[C@H]5O)O4)O3)CC[C@H]2O[C@@H]1[C@@H](O)C[C@H](C)[C@H]1O[C@@]2(CCCCO2)CC[C@H]1C [okadaic acid]
effect on augmentation ([1]; 1 μM, alone): unable to block augmentation; also recorded: did not alter augmentation

CN[C@@H]1C[C@H]2O[C@@](C)([C@@H]1OC)n1c3ccccc3c3c4c(c5c6ccccc6n2c5c31)C(=O)NC4 [staurosporine]
effect on augmentation ([1]; 100 nM): failed to suppress augmentation

GSTMunc13-1 (aa 445-567): GST-tagged fragment of rat Munc13-1 (aa 445-567) containing the Calmodulin binding site, expressed in bacteria
calcium dependence of Calmodulin binding in cosedimentation [4]: partially independent of Ca^2+ | Calmodulin binding in cosedimentation [4]: robustly bound

GSTubMunc13-2 (aa 372-494): GST-tagged fragment of rat ubMunc13-2 (aa 372-494) containing the Calmodulin binding site, expressed in bacteria
Calmodulin binding in cosedimentation [4]: robustly bound

cqarahwfravtkvrlqlqeis (CQARAHWFRAVTKVRLQLQEIS) [peptide derived of ubMunc13-2]
calcium dependence of Calmodulin binding [5]: absolutely dependent on the presence of calcium | binding of Ca^2+/Calmodulin [5]: bound

crakanwlrafnkvrmqlqear (CRAKANWLRAFNKVRMQLQEAR) [Munc13-1 derived peptide]
calcium dependence of Calmodulin binding [5]: partially Ca2+ independent binding | emission spectrum change on addition of Apocalmodulin (Calcium-free Calmodulin) ([5]; equimolar Apocalmodulin, 1 mM EGTA): pronounced blue shift and slight intensity increase | binding of Ca^2+/Calmodulin [5]: tighter binding

α-latrotoxin
mEPSC amplitude [3, 7]: 25.6±2.6 pA | mEPSC-like event frequency [3, 7]: 0.074±0.024 Hz | average mEPSC amplitude ([3]; 1 nM, Munc13-2 single mutant control neurons): 22.7±2.4 pA | mEPSC frequency ([3]; five minutes following 60 s application of 1 nM, Munc13-2 single mutant control neurons): 23.4±3.9 Hz
